Assay results as given in ChEMBL document CHEMBL3774317, “Design and synthesis of novel tamoxifen analogues that avoid CYP2D6 metabolism” (Eur J Med Chem, 2016).

How the values were obtained:
HT-29 [1] = assay: Cytotoxicity against human HT-29 cells assessed as cell growth at 10^-6 M after 48 hrs by SRB assay; type: functional; conditions: HT-29, 48 h, read-out: Activity
[2] = Cytotoxicity against human HCT15 cells assessed as cell growth at 10^-7 M after 48 hrs by SRB assay; type: functional; conditions: HCT-15, 48 h, read-out: Activity
KM12 = assay: Cytotoxicity against human KM12 cells assessed as cell growth at 10^-4 M after 48 hrs by SRB assay; type: functional; conditions: KM12, 48 h, read-out: Activity
[3] = Cytotoxicity against human OVCAR8 cells assessed as cell growth at 10^-7 M after 48 hrs by SRB assay; type: functional; conditions: OVCAR-8, 48 h, read-out: Activity
[4] = Cytotoxicity against human OVCAR8 cells assessed as cell growth at 10^-6 M after 48 hrs by SRB assay; type: functional; conditions: OVCAR-8, 48 h, read-out: Activity
[5] = Cytotoxicity against human UACC62 cells assessed as cell growth at 10^-8 M after 48 hrs by SRB assay; type: functional; conditions: UACC-62, 48 h, read-out: Activity
[6] = Cytotoxicity against human OVCAR5 cells assessed as cell growth at 10^-8 M after 48 hrs by SRB assay; type: functional; conditions: OVCAR-5, 48 h, read-out: Activity
[7] = Cytotoxicity against human BT549 cells assessed as cell growth at 10^-8 M after 48 hrs by SRB assay; type: functional; conditions: BT-549, 48 h, read-out: Activity
MDA-MB-468 [8] = assay: Cytotoxicity against human MDA-MB-468 cells assessed as cell growth at 10^-7 M after 48 hrs by SRB assay; type: functional; conditions: MDA-MB-468, 48 h, read-out: Activity
[9] = Cytotoxicity against human SF539 cells assessed as cell growth at 10^-8 M after 48 hrs by SRB assay; type: functional; conditions: SF-539, 48 h, read-out: Activity
[10] = Cytotoxicity against human DU145 cells assessed as cell growth at 10^-4 M after 48 hrs by SRB assay; type: functional; conditions: DU-145, 48 h, read-out: Activity
MDA-MB-468 [11] = assay: Cytotoxicity against human MDA-MB-468 cells assessed as cell growth at 10^-6 M after 48 hrs by SRB assay; type: functional; conditions: MDA-MB-468, 48 h, read-out: Activity
MCF7 [12] = assay: Cytotoxicity against human MCF7 cells assessed as cell growth at 10^-7 M after 48 hrs by SRB assay; type: functional; conditions: MCF7, 48 h, read-out: Activity
[13] = Cytotoxicity against human HOP92 cells assessed as cell growth at 10^-8 M after 48 hrs by SRB assay; type: functional; conditions: HOP-92, 48 h, read-out: Activity
[14] = Cytotoxicity against human SKOV3 cells assessed as cell growth at 10^-6 M after 48 hrs by SRB assay; type: functional; conditions: SK-OV-3, 48 h, read-out: Activity
ACHN = assay: Cytotoxicity against human ACHN cells assessed as cell growth at 10^-8 M after 48 hrs by SRB assay; type: functional; conditions: read-out: Activity
Estrogen receptor beta = Estrogen receptor beta (Homo sapiens, UniProt Q92731)
Sequence of Estrogen receptor beta (Q92731 whole entry): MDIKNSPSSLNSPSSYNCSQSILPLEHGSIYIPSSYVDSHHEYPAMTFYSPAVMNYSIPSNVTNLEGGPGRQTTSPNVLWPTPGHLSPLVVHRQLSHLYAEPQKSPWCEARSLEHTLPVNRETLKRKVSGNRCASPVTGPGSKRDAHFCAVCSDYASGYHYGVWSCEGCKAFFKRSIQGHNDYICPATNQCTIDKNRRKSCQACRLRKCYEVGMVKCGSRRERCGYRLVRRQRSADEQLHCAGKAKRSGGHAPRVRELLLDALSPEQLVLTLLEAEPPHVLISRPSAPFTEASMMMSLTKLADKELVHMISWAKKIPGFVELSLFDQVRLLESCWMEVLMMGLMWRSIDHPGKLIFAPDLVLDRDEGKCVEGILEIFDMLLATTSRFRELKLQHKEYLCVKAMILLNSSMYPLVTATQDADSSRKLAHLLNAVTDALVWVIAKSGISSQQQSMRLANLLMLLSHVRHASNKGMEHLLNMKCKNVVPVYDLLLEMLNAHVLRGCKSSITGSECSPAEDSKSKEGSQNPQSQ
Description: Displacement of [3H]-E2 from human ER-beta incubated for 16 to 20 hrs by liquid scintillation counting analysis

SN12C [15] = assay: Cytotoxicity against human SN12C cells assessed as cell growth at 10^-7 M after 48 hrs by SRB assay; type: functional; conditions: read-out: Activity
SN12C [16] = assay: Cytotoxicity against human SN12C cells assessed as cell growth at 10^-4 M after 48 hrs by SRB assay; type: functional; conditions: read-out: Activity
MDA-MB-435 = assay: Cytotoxicity against human MDA-MB-435 cells assessed as cell growth at 10^-5 M after 48 hrs by SRB assay; type: functional; conditions: MDA-MB-435, 48 h, read-out: Activity
A498 = assay: Cytotoxicity against human A498 cells assessed as cell growth at 10^-7 M after 48 hrs by SRB assay; type: functional; conditions: A498, 48 h, read-out: Activity
[17] = Cytotoxicity against human SNB75 cells assessed as cell growth at 50 nM after 48 hrs by SRB assay; type: functional; conditions: SNB-75, 48 h, read-out: Activity
[18] = Cytotoxicity against human HCC2998 cells assessed as cell growth at 5 uM after 48 hrs by SRB assay; type: functional; conditions: HCC 2998, 48 h, read-out: Activity
[19] = Cytotoxicity against human SNB19 cells assessed as cell growth at 5 uM after 48 hrs by SRB assay; type: functional; conditions: SNB-19, 48 h, read-out: Activity
[20] = Cytotoxicity against human OVCAR4 cells assessed as cell growth at 50 nM after 48 hrs by SRB assay; type: functional; conditions: OVCAR-4, 48 h, read-out: Activity
M14 = assay: Cytotoxicity against human M14 cells assessed as cell growth at 50 uM after 48 hrs by SRB assay; type: functional; conditions: M14, 48 h, read-out: Activity
[21] = Cytotoxicity against human IGROV1 cells assessed as cell growth at 5 nM after 48 hrs by SRB assay; type: functional; conditions: IGROV-1, 48 h, read-out: Activity
NCI-H522 = assay: Cytotoxicity against human NCI-H522 cells assessed as cell growth at 0.5 uM after 48 hrs by SRB assay; type: functional; conditions: NCI-H522, 48 h, read-out: Activity
[22] = Cytotoxicity against human HCC2998 cells assessed as cell growth at 50 nM after 48 hrs by SRB assay; type: functional; conditions: HCC 2998, 48 h, read-out: Activity
MCF7 [23] = assay: Cytotoxicity against human MCF7 cells assessed as cell growth at 50 nM after 48 hrs by SRB assay; type: functional; conditions: MCF7, 48 h, read-out: Activity
MDA-MB-468 [24] = assay: Cytotoxicity against human MDA-MB-468 cells assessed as cell growth at 5 nM after 48 hrs by SRB assay; type: functional; conditions: MDA-MB-468, 48 h, read-out: Activity
A549 = assay: Cytotoxicity against human A549 cells assessed as cell growth at 0.5 uM after 48 hrs by SRB assay; type: functional; conditions: A549, 48 h, read-out: Activity
MCF7 [25] = assay: Cytotoxicity against human MCF7 cells assessed as cell growth at 50 uM after 48 hrs by SRB assay; type: functional; conditions: MCF7, 48 h, read-out: Activity
[26] = Cytotoxicity against human LOXIMVI cells assessed as cell growth at 0.5 uM after 48 hrs by SRB assay; type: functional; conditions: LOX IMVI, read-out: Activity
SK-MEL-2 = assay: Cytotoxicity against human SK-MEL-2 cells assessed as cell growth at 5 nM after 48 hrs by SRB assay; type: functional; conditions: SK-MEL-2, 48 h, read-out: Activity
NCI-H322M = assay: Cytotoxicity against human NCI-H322M cells assessed as cell growth at 50 uM after 48 hrs by SRB assay; type: functional; conditions: read-out: Activity
[27] = Cytotoxicity against human HOP62 cells assessed as cell growth at 50 nM after 48 hrs by SRB assay; type: functional; conditions: HOP-62, 48 h, read-out: Activity
[28] = Cytotoxicity against human SW620 cells assessed as cell growth at 5 uM after 48 hrs by SRB assay; type: functional; conditions: SW-620, 48 h, read-out: Activity
[29] = Cytotoxicity against human OVCAR3 cells assessed as cell growth at 0.5 uM after 48 hrs by SRB assay; type: functional; conditions: OVCAR-3, 48 h, read-out: Activity
HT-29 [30] = assay: Cytotoxicity against human HT-29 cells assessed as cell growth at 50 uM after 48 hrs by SRB assay; type: functional; conditions: HT-29, 48 h, read-out: Activity
SN12C [31] = assay: Cytotoxicity against human SN12C cells assessed as cell growth at 5 uM after 48 hrs by SRB assay; type: functional; conditions: read-out: Activity

`C/C(=C(/c1ccc(O)cc1)c1ccc(OCCN2CCCC2)cc1)c1ccccc1` showed a growth at 1 µM (HT-29 [1]) of 67%, a growth at 0.1 µM [2] of 91% and a growth at 100 µM (KM12) of -89%. The growth at 0.1 µM [3] was 105%, the growth at 1 µM [4] was 98% and the growth at 0.01 µM [5] was 99%. For the same molecule, the growth at 0.01 µM [6] was 88%, the growth at 0.01 µM [7] was 96% and the growth at 0.1 µM (MDA-MB-468 [8]) was 97%. For the same molecule, the growth at 0.01 µM [9] was 89%, the growth at 100 µM [10] was -100% and the growth at 1 µM (MDA-MB-468 [11]) was 84%. For the same molecule, the growth at 0.1 µM (MCF7 [12]) was 44%, the growth at 0.01 µM [13] was 98% and the growth at 1 µM [14] was 89%. The growth at 0.01 µM (ACHN) was 93%, the IC50 (Estrogen receptor beta) was 40 nM and the growth at 0.1 µM (SN12C [15]) was 104%. For the same molecule, the growth at 100 µM (SN12C [16]) was -69%, the growth at 10 µM (MDA-MB-435) was -48% and the growth at 0.1 µM (A498) was 60%.

For `CCCCCCCCCC(=O)Oc1ccc(/C(=C(/C)c2ccccc2)c2ccc(OCCN3CCCC3)cc2)cc1`, the growth at 0.05 µM [17] was 83%, the growth at 5 µM [18] was 90% and the growth at 5 µM [19] was 94%. It also gave a growth at 0.05 µM [20] of 92%, a growth at 50 µM (M14) of -81% and a growth at 0.005 µM [21] of 108%. It also gave a growth at 0.5 µM (NCI-H522) of 98%, a growth at 0.05 µM [22] of 98% and a growth at 0.05 µM (MCF7 [23]) of 41%. For the same molecule, the growth at 0.005 µM (MDA-MB-468 [24]) was 96%, the growth at 0.5 µM (A549) was 96% and the growth at 50 µM (MCF7 [25]) was -79%. It also gave a growth at 0.5 µM [26] of 62%, a growth at 0.005 µM (SK-MEL-2) of 101% and a growth at 50 µM (NCI-H322M) of -86%. The growth at 0.05 µM [27] was 95%, the growth at 5 µM [28] was 95% and the growth at 0.5 µM [29] was 86%. For the same molecule, the growth at 50 µM (HT-29 [30]) was -89% and the growth at 5 µM (SN12C [31]) was 95%.
